Assay results as given in PubChem BioAssay AID1963851 (Molecular Pharmacology Branch, DTP, NCI, 2024).

System: 188146-221-R-J1-PDC complex spheroid viability
Assay: Anticancer human tumor 188146-221-R-J1-PDC patient-derived colon adenocarcinoma cell line growth inhibition [POLQ]
Conditions: for IC50: curve of first compound; for viability, T/C: stronger effect = lower value; active = viability on the fitted dose curve at most 10% of control; inactive = the rest
Outline: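 PDC + HUVEC + MSC complex spheroids; POLQ inhibitors ± partner drugs; top conc. at/near clinical Cmax, else 10 microM (SN-38 1 microM), half-log dilutions; 37 degrees C, 5% CO2.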

[1] = second compound 0.0316 µM, first compound 0.0316 µM
[2] = second compound 0.0316 µM, first compound 0.1 µM
[3] = second compound 0.0316 µM, first compound 0.316 µM
[4] = second compound 0.0316 µM, first compound 1 µM
[5] = second compound 0.1 µM, first compound 0.0316 µM
[6] = second compound 0.1 µM, first compound 0.1 µM
[7] = second compound 0.1 µM, first compound 0.316 µM
[8] = second compound 0.1 µM, first compound 1 µM
[9] = second compound 0.316 µM, first compound 0.0316 µM
[10] = second compound 0.316 µM, first compound 0.1 µM
[11] = second compound 0.316 µM, first compound 0.316 µM
[12] = second compound 0.316 µM, first compound 1 µM
[13] = second compound 1 µM, first compound 0.0316 µM
[14] = second compound 1 µM, first compound 0.1 µM
[15] = second compound 1 µM, first compound 0.316 µM
[16] = second compound 1 µM, first compound 1 µM
[17] = second compound 3.16 µM, first compound 0.0316 µM
[18] = second compound 3.16 µM, first compound 0.1 µM
[19] = second compound 3.16 µM, first compound 0.316 µM
[20] = second compound 3.16 µM, first compound 1 µM
[21] = second compound 10 µM, first compound 0.0316 µM
[22] = second compound 10 µM, first compound 0.1 µM
[23] = second compound 10 µM, first compound 0.316 µM
[24] = second compound 10 µM, first compound 1 µM
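Also: spheroids exposed to compounds for seven days.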
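For viability, T/C in this document: 100% = DMSO vehicle control viability.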

CCc1c2c(nc3ccc(O)cc13)-c1cc3c(c(=O)n1C2)COC(=O)[C@]3(O)CC + COC1C(OC(N)=O)C(O)C(Oc2ccc3c(O)c(NC(=O)c4ccc(O)c(CC=C(C)C)c4)c(=O)oc3c2C)OC1(C)C
13.2 nM: IC50 (second compound 10 µM)
21.1 nM: IC50 (second compound 3.16 µM)
inactive: viability, T/C (second compound 0.0316 µM, first compound 0.00316 µM) 96.6% | viability, T/C (second compound 0.0316 µM, first compound 0.01 µM) 83.1% | viability, T/C [1] 41% | viability, T/C [2] 20.6% | viability, T/C [3] 10.8% | viability, T/C (second compound 0.1 µM, first compound 0.00316 µM) 95.7% | viability, T/C (second compound 0.1 µM, first compound 0.01 µM) 88% | viability, T/C [5] 42.5% | viability, T/C [6] 16.8% | viability, T/C (second compound 0.316 µM, first compound 0.00316 µM) 87.1% | viability, T/C (second compound 0.316 µM, first compound 0.01 µM) 88.6% | viability, T/C [9] 38% | viability, T/C [10] 14.2% | viability, T/C [11] 9.57% | viability, T/C [12] 7.85% | viability, T/C (second compound 1 µM, first compound 0.00316 µM) 93.5% | viability, T/C (second compound 1 µM, first compound 0.01 µM) 91.2% | viability, T/C [13] 42.9% | viability, T/C [14] 16.6% | viability, T/C [15] 11% | viability, T/C [16] 7.07% | viability, T/C (second compound 3.16 µM, first compound 0.00316 µM) 94.3% | viability, T/C (second compound 3.16 µM, first compound 0.01 µM) 79% | viability, T/C [17] 34% | viability, T/C [18] 13.3% | viability, T/C (second compound 10 µM, first compound 0.00316 µM) 95.5% | viability, T/C (second compound 10 µM, first compound 0.01 µM) 56.7% | viability, T/C [21] 28.6% | viability, T/C [22] 14.9% | viability, T/C [23] 9.1%
27 nM: IC50 (second compound 1 µM)
25.9 nM: IC50 (second compound 0.0316 µM)
active: viability, T/C [4] 7.12% | viability, T/C [7] 8.86% | viability, T/C [8] 6.83% | viability, T/C [19] 10.9% | viability, T/C [20] 6.97% | viability, T/C [24] 9.35%
26.8 nM: IC50 (second compound 0.1 µM)
24 nM: IC50 (second compound 0.316 µM)

CNCc1ccc(-c2[nH]c3cc(F)cc4c3c2CCNC4=O)cc1 + COC1C(OC(N)=O)C(O)C(Oc2ccc3c(O)c(NC(=O)c4ccc(O)c(CC=C(C)C)c4)c(=O)oc3c2C)OC1(C)C
inactive: viability, T/C [1] 111% | viability, T/C [2] 98.3% | viability, T/C [3] 109% | viability, T/C [4] 102% | viability, T/C (second compound 0.0316 µM, first compound 3.16 µM) 103% | viability, T/C (second compound 0.0316 µM, first compound 10 µM) 96.5% | viability, T/C [5] 118% | viability, T/C [6] 104% | viability, T/C [7] 106% | viability, T/C [8] 99.6% | viability, T/C (second compound 0.1 µM, first compound 3.16 µM) 102% | viability, T/C (second compound 0.1 µM, first compound 10 µM) 117% | viability, T/C [9] 106% | viability, T/C [10] 101% | viability, T/C [11] 102% | viability, T/C [12] 111% | viability, T/C (second compound 0.316 µM, first compound 3.16 µM) 112% | viability, T/C (second compound 0.316 µM, first compound 10 µM) 104% | viability, T/C [13] 108% | viability, T/C [14] 110% | viability, T/C [15] 106% | viability, T/C [16] 105% | viability, T/C (second compound 1 µM, first compound 3.16 µM) 99.5% | viability, T/C (second compound 1 µM, first compound 10 µM) 115% | viability, T/C [17] 98.1% | viability, T/C [18] 99.8% | viability, T/C [19] 106% | viability, T/C [20] 101% | viability, T/C (second compound 3.16 µM, first compound 3.16 µM) 111% | viability, T/C (second compound 3.16 µM, first compound 10 µM) 107% | viability, T/C [21] 111% | viability, T/C [22] 103% | viability, T/C [23] 110% | viability, T/C [24] 93.2% | viability, T/C (second compound 10 µM, first compound 3.16 µM) 117% | viability, T/C (second compound 10 µM, first compound 10 µM) 121%
> 10000 nM: IC50 (second compound 0.0316 µM) | IC50 (second compound 0.1 µM) | IC50 (second compound 0.316 µM) | IC50 (second compound 1 µM) | IC50 (second compound 3.16 µM) | IC50 (second compound 10 µM)
